Experimental findings from patent US9334246B2, “Substituted triazines for malaria treatment and chemoprophylaxis” (The United States of America, as represented by the …, priority 2013, dated 2016) are described below.

Like-named read-outs stand apart in the source and are kept apart here. Where only a bound is given, the exact number is not on record here.

For series [1], the system named is P. falciparum D6. The experiment in a line: Malaria SYBR Green Fluorescence Assay, D6 strain. Format: cell-based, Plasmodium falciparum. The following applies: for D6: SYBR Green Assay.
In series [2] the test system is P. falciparum W2. The experiment in a line: Malaria SYBR Green Fluorescence Assay, W2 strain. The following applies: for W2: SYBR Green Assay. Format: cell-based, Plasmodium falciparum.
The test system of series [3] is P. falciparum C235. The experiment in a line: Malaria SYBR Green Fluorescence Assay, C235 strain. Format: cell-based, Plasmodium falciparum. The following applies: for C235: SYBR Green Assay.
Series [4] concerns P. berghei. The experiment in a line: Thompson Test, in vivo mouse malaria assay. On the set-up: species or system mice (ICR strain).
The subject of series [5] is P. cynomolgi.
Series [6] addresses T1, hERG potassium ion channel (Homo sapiens, UniProt Q12809). The experiment in a line: hERG patch clamp assay (% inhibition at 10 μM). Background: hERG is a cardiac potassium channel; its block is linked to QT prolongation.
Series [7] has as its system drug resistant strains of P. falciparum. The experiment in a line: in vitro profiling against different drug resistant strains of P. falciparum. Format: cell-based, Plasmodium falciparum.
Series [8] deals with T1, hERG potassium ion channel. The following applies: 10 μM.
For series [9] the following is noted: in vivo.
The target of series [10] is hERG channel (Homo sapiens, UniProt Q12809).
Setting [11] is: (160 × 3): 160 mg/kg for 3 days.

T1 sequence (Q12809 whole entry): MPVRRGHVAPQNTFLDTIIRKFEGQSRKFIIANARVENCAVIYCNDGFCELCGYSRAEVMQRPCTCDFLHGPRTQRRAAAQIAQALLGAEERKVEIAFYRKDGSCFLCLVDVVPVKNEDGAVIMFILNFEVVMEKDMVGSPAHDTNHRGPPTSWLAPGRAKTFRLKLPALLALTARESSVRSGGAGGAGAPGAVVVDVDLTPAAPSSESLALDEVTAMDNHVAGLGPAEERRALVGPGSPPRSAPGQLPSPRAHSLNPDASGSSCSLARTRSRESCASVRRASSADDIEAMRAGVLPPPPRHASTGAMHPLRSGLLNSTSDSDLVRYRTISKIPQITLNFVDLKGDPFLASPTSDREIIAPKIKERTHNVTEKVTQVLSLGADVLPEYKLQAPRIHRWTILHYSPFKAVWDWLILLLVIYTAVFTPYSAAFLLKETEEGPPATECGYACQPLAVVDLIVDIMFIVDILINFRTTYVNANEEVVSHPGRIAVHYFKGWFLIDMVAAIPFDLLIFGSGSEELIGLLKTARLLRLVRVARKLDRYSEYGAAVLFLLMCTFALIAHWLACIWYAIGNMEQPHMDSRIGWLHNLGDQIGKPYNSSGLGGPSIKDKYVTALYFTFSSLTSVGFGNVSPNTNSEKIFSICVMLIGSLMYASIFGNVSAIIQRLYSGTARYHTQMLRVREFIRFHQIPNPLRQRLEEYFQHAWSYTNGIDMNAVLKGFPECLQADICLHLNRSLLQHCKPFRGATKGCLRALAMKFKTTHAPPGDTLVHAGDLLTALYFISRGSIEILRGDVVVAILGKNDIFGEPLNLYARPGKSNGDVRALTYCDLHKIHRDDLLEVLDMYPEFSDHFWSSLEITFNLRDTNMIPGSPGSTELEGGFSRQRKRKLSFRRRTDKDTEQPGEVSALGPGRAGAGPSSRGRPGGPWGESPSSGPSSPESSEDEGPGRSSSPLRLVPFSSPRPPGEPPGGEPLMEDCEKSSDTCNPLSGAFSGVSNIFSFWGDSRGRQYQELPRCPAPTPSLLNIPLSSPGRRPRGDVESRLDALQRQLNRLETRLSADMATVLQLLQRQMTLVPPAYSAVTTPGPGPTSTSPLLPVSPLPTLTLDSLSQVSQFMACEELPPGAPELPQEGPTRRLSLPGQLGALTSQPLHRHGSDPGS
Chain of hERG channel (Q12809 whole entry): as above

In turn, `CC(C)(N)CNc1nc(-c2ccc(C(Cl)(Cl)Cl)cc2)nc(C(Cl)(Cl)Cl)n1` [Compound 55] registered a D6 in [1] of 46 ng/mL. For the same compound, in series [2], the W2 came out at 30 ng/mL. Besides, the C235 in series [3] turned out to be 89 ng/mL. In addition, the entries for the “In vivo Results Thompson Assay (n/N Cures or Suppressive)” value in [4] ((40 × 3): 40 mg/kg for 3 days) and in [4] ((80 × 3): 80 mg/kg for 3 days) were 3/5 and 5/5, respectively. For the same compound, the “Rhesus Results” value in [5] (65 mg/kg once weekly) was “prophylaxis”; in series [5] (65 mg/kg/day × 7 days) it was “malaria cures”. Besides, in series [6] (% inhibition at 10 μM, patch clamp), the hERG was 17%.

In turn, “CC(C)(C)c1ccc(cc1)c2nc(nc(n2)C(Cl)(Cl)Cl)N3CC4CC3CN4 [Compound 721]” came in with a D6 in series [1] of 142 ng/mL. Also, in [2], the W2 was found to be 69 ng/mL. This compound also had a C235 in [3] of 126 ng/mL. Moreover, in series [4] ((80 × 3): 80 mg/kg for 3 days), the “In vivo Results Thompson Assay (n/N Cures or Suppressive)” value was “(80 × 3) 2/5 Cures”. The entries for the “Rhesus Results” value in [5] (65 mg/kg once weekly) and in series [5] (65 mg/kg/day × 7 days) were “prophylaxis” and “malaria cures”, respectively. The compound further yielded a hERG in series [6] (hERG activity as % inhibition) of 2%.

One may read the Cmax as the maximum level reached in the sampled fluid or tissue. In general, IC50 refers to the point on the concentration scale where inhibition reaches its midpoint. In the case of “CC(CNc1nc(Nc2ccc(Cl)c(Cl)c2)nc(n1)C(Cl)(Cl)Cl)N(C)C [Compound 641]”, the “D6 (SYBR Green Assay IC50)” value in series [1] amounted to 15 ng/mL. Besides, the “W2 (SYBR Green Assay IC50)” value in series [2] is on record as 5 ng/mL. For the same compound, the “C235 (SYBR Green Assay IC50)” value in [3] was 13 ng/mL. In addition, the “In vivo Results Thompson Assay (n/N Cures or Suppressive)” value in series [4] ((40 × 3): 40 mg/kg for 3 days) is 2/5; in series [4] ((80 × 3): 80 mg/kg for 3 days), “(80 × 3) 5/5 Cures”. For the same compound, in [4] ((160 × 1): single 160 mg/kg PO dose), the “In vivo Results Thompson Assay (n/N Cures)” value is on record as 5/5. Moreover, the in vitro potency result in series [7] was “excellent in vitro potency”. Moreover, in series [8], the “hERG (% inhibition)” value amounted to 117%. The entries for the “Rhesus Results” value in series [5] (65 mg/kg once weekly) and in series [5] (65 mg/kg/day × 7 days) were “prophylaxis” and “malaria cures”, respectively. Also, the “malaria parasitemia, prophylactic drug, rhesus P. cynomolgi relapsing model” value in series [5] (dosed once weekly (65 mg, PO)) was “prevented malaria parasitemia”. For the same compound, the tolerability entry in series [5] (rhesus monkey, in vivo, 316 mg/kg) is listed as “well tolerated”. Further, the mouse half-life in series [9] (po, 80 mg/kg) is 8 h. In addition, in series [9] (mouse), the Cmax is more than 600 nM. In addition, the IC50 in [10] is 600 nM.

For “CCN1CCCC(C1)Nc2nc(Nc3cc(Cl)cc(Cl)c3)nc(n2)C(Cl)(Cl)Cl [Compound 638]”, the “D6 (SYBR Green Assay IC50)” value in series [1] is 5 ng/mL. For the same compound, the “W2 (SYBR Green Assay IC50)” value in [2] turned out to be 5 ng/mL. In addition, the “C235 (SYBR Green Assay IC50)” value in [3] is on record as 5 ng/mL. Besides, the “In vivo Results Thompson Assay (n/N Cures or Suppressive)” value in series [4] ((80 × 3): 80 mg/kg for 3 days) is reported as “(80 × 3) Suppressive”. In [6] (10 μM), the “hERG (% inhibition)” value is on record as 49%.

In series [1], “COC1═CC═CC(═C1)C1═NC(NCC2(N)CCCCC2)═NC(═N1)C(Cl)(Cl)Cl [Compound 661]” registered a D6 of 3 ng/mL. The same compound came in with a W2 in series [2] of 2 ng/mL. This compound had a C235 in [3] of 8 ng/mL. Further, the “In vivo Results Thompson Assay (n/N Cures or Suppressive)” value in [4] ((80 × 3): 80 mg/kg for 3 days) is on record as “(80 × 3) Suppressive”. In series [6] (hERG activity as % inhibition), this compound displayed a hERG of 32%.

In turn, “Cc1ccc(cc1)c2nc(nc(n2)C(Cl)(Cl)Cl)N3CC4CC3CN4 [Compound 719]” showed a D6 in series [1] of 96 ng/mL. The W2 in [2] is reported as 68 ng/mL. This compound also had a C235 in series [3] of 114 ng/mL. For the same compound, the “In vivo Results Thompson Assay (n/N Cures or Suppressive)” value is recorded as “(80 × 3) Suppressive; (160 × 3)” in [4] ((80 × 3): 80 mg/kg for 3 days) and “Suppressive” in series [4] (setting [11]). The same compound had a hERG in [6] (hERG activity as % inhibition) of 10%.

“ClC(Cl)(Cl)c1ccc(cc1)c2nc(nc(n2)C(Cl)(Cl)Cl)N3CC4CC3CN4 [Compound 722]”: in series [1], the D6 turned out to be 9 ng/mL. Besides, the W2 in series [2] was found to be 5 ng/mL. The same compound displayed a C235 in series [3] of 12 ng/mL. The “In vivo Results Thompson Assay (n/N Cures or Suppressive)” value is reported as “Suppressive” in [4] ((80 × 3): 80 mg/kg for 3 days) and 5/5 in series [4] (setting [11]). The same compound showed a hERG in series [6] (hERG activity as % inhibition) of 14%.

As to “ClC(Cl)(Cl)c1nc(NCCCN2CCCC2)nc(Nc3ccc(cc3)n4cccn4)n1 [Compound 728]”, the D6 in series [1] was determined as 77 ng/mL. This compound also had a W2 in series [2] of 27 ng/mL. In addition, the C235 in series [3] stood at 79 ng/mL. Moreover, the “In vivo Results Thompson Assay (n/N Cures or Suppressive)” value in [4] ((80 × 3): 80 mg/kg for 3 days) is recorded as “(80 × 3) Suppressive”. In series [6] (hERG activity as % inhibition), this compound yielded a hERG of 116%.

“FC(F)(F)OC1═CC═C(NC2═NC(═NC(═N2)N2CCCNCC2)C(Cl)(Cl)Cl)C═C1 [Compound 659]” came in with a D6 in series [1] of 19 ng/mL. The W2 in [2] was determined as 18 ng/mL. In series [3], this compound displayed a C235 of 38 ng/mL. Moreover, the “In vivo Results Thompson Assay (n/N Cures or Suppressive)” value in series [4] ((80 × 3): 80 mg/kg for 3 days) is given as “(80 × 3) 4/5 Cures”. The compound also had a hERG in series [6] (hERG activity as % inhibition) of 58%.

In [1], “NC1(CNC2═NC(═NC(═N2)C2═CC═C(C═C2)C2═CC═CC═C2)C(Cl)(Cl)Cl)CCCC1 [Compound 672]” showed a D6 of 46 ng/mL. The compound further gave a W2 in [2] of 30 ng/mL. In [3], the C235 came to 68 ng/mL. Besides, the “In vivo Results Thompson Assay (n/N Cures or Suppressive)” value in [4] ((80 × 3): 80 mg/kg for 3 days) is recorded as “(80 × 3) 4/4 Cures”. In series [6] (hERG activity as % inhibition), this compound had a hERG of 33%.

“NC1CCN(CC1)c2nc(nc(n2)C(Cl)(Cl)Cl)c3ccc(cc3)C(Cl)(Cl)Cl [Compound 743]” had a D6 in [1] of 22 ng/mL. In series [2], this compound yielded a W2 of 16 ng/mL. In series [3], this compound came in with a C235 of 14 ng/mL. In addition, the results for the “In vivo Results Thompson Assay (n/N Cures or Suppressive)” value in [4] ((40 × 3): 40 mg/kg for 3 days) and in [4] ((80 × 3): 80 mg/kg for 3 days) were “Suppressive” and “(80 × 3) 3/5 Cures; (40 × 3)”, respectively. This compound also came in with a hERG in series [6] (hERG activity as % inhibition) of 15%.
